The values below come from ChEMBL document CHEMBL1122680, “A photoaffinity reagent to label the opiate receptors of guinea pig ileum and mouse vas deferens” (J Med Chem, 1984).

For orientation: IC50 means the concentration that gives 50% inhibition. A lower IC50 goes with inhibition by little substance.

Molecules are shown by their SMILES.

Common to all, as to type: functional
One experiment is filed under the species Mus musculus. The experiment is described as follows: Inhibitory effect on electrically induced contraction of Mouse vas deferens (MVD).
The species entered for a further experiment is Cavia porcellus. The experiment is described as follows: Inhibitory effect on electrically induced contraction of guinea pig ileum (GPI).
For another experiment, the species on record is Rattus norvegicus. Description: Inhibitory effect on the binding of 2 nM [3H]naloxone to rat brain membrane.
Experiment [1] is described as follows: Relative potency calculated from the ratio of IC50 of [Leu]-enkephalin to that of the compound.

Turning to `CC(C)C[C@H](NC(=O)[C@H](Cc1ccccc1)NC(=O)CNC(=O)[C@@H](C)NC(=O)[C@@H](N)Cc1ccc(O)cc1)C(N)=O`, the results for the IC50 in the experiment listed under Mus musculus, in the experiment filed under Cavia porcellus and in the experiment listed under Rattus norvegicus were 2.88 nM, 5.23 nM and 30 nM, respectively. Moreover, in experiment [1], the Potency was 3.9.

For the compound `CC(C)C[C@H](NC(=O)[C@H](Cc1ccccc1)NC(=O)CNC(=O)CNC(=O)[C@@H](N)Cc1ccc(O)cc1)C(N)=O` [[LEU5]ENKEPHALIN], the results for the IC50 in the experiment listed under Mus musculus, in the experiment listed under Cavia porcellus and in the experiment listed under Rattus norvegicus were 17 nM, 120 nM and 118 nM, respectively. Further, the Potency in experiment [1] is 1.

On to `CC(C)C[C@H](NC(=O)[C@H](Cc1ccccc1)NC(=O)CNC(=O)[C@H](C)NC(=O)[C@@H](N)Cc1ccc(O)cc1)C(=O)NCCNc1ccc(N=[N+]=[N-])cc1[N+](=O)[O-]`, for which the IC50 in the experiment filed under Mus musculus was 2.59 nM; in the experiment filed under Cavia porcellus, 4.35 nM; in the experiment filed under Rattus norvegicus it was 2.52 nM. In addition, the Potency in experiment [1] is 46.8.

Take `C=CCN1CC[C@]23c4c5ccc(O)c4O[C@H]2C(=O)CC[C@@]3(O)[C@H]1C5` [NALOXONE]: the IC50 in the experiment listed under Rattus norvegicus came out at 6.39 nM. For the same compound, the Potency in experiment [1] was 18.5.
